Reference: patent US20140148432A1, “Compounds for the Treatment of Neurological Disorders” (priority 2009, published 2014)
Where two headings read alike, the source gives them in different places.

Assays:
[1] = target: GluN1/GluN2D subtype of NMDA receptors (Rattus norvegicus, UniProt Q62645); assay: NMDA receptor subunit selectivity, GluN1/GluN2D in Xenopus oocytes; assay type: cell-based; details: 2 min; 10 μM antagonist with 50 μM glutamate and 30 μM glycine, two min; agonists alone = 100%; read-out: GluN2D % Current Remaining
Experimental: (§1) Stage V and VI oocytes were surgically removed from the ovaries of large, well-fed and healthy Xenopus laevis anesthetized with 3-amino-benzoic acid ethyl ester (3 gm/l). Clusters of isolated oocytes were incubated with 292 U/ml Worthington (Freehold, N.J.) type IV collagenase or 1.3 mg/ml collagenase (Life Technologies, Gaithersburg, Md.; 17018-029) for 2 hr in Ca^2+-free solution comprised of (in mM) 115 NaCl, 2.5 KCl, and 10 HEPES, pH 7.5, with slow agitation to remove the follicular cell layer. Oocytes were then washed in the same solution supplemented with 1.8 mM CaCl2 and maintained in Barth's solution comprised of (in mM): 88 NaCl, 1 KCl, 2.4 NaHCO3, 10 HEPES, 0.82 MgSO4, 0.33 Ca(NO3)2, and 0.91 CaCl2 and supplemented with 100 μg/ml gentamycin, 10 μg/ml streptomycin, and 10 μg/ml penicillin. Oocytes were manually defolliculated and injected within 24 hrs of isolation with 3-5 ng of GluN1 subunit cRNA and 7-10 ng of GluN2 cRNA subunit in a 50 nl volume, and incubated in Barth's solution at 18° C. for 2-7 d. Glass injection pipettes had tip sizes ranging from 10-20 microns, and were backfilled with mineral oil. cRNA was synthesized from linearized template cDNA for rat glutamate receptor subunits according to manufacturer specifications (Ambion).
(§2) Two electrode voltage-clamp recordings were made 2-7 days post-injection. Oocytes were placed in a dual-track plexiglass recording chamber with a single perfusion line that splits in a Y-configuration to perfuse two oocytes. Dual recordings were made at room temperature (23° C.) using two Warner 00725B two-electrode voltage clamp amplifiers, arranged as recommended by the manufacturer. Glass microelectrodes (1-10 Megaohms) were filled with 300 mM KCl (voltage electrode) or 3 M KCl (current electrode). The bath clamps communicated across silver chloride wires placed into each side of the recording chamber, both of which were assumed to be at a reference potential of 0 mV. Oocytes were perfused with a solution comprised of (in mM) 90 NaCl, 1 KCl, 10 HEPES, […] and 0.5 BaCl2; pH was adjusted by addition of 1-3 M NaOH or HCl. Oocytes were recorded under voltage clamp at −40 mV. Final concentrations for glutamate and glycine were 50 μM and 30 μM, respectively. Concentration-response curves for experimental compounds were obtained by applying in successive fashion maximal glutamate/glycine, followed by glutamate/glycine plus variable concentrations of experimental compounds. Dose response curves consisting of 4 to 8 concentrations were obtained in this manner. The baseline leak current at −40 mV was measured before and after recording, and the full recording linearly corrected for any change in leak current. The level of inhibition by applied experimental compounds was expressed as a percent of the initial glutamate response, and averaged together across oocytes from multiple experiments. Results were pooled, and the average percent responses at antagonist concentrations were fit by the equation,
(§3) GluN1/GluN2A and GluN1/GluN2D subtype of NMDA receptors were expressed in Xenopus laevis as described in Example 13. Here, a 10 μM concentration of the antagonist was perfused with 50 μM glutamate and 30 μM glycine onto the oocyte for two min and the remaining current in the presence of the antagonist was compared to the maximal current obtained with 50 μM glutamate and 30 μM glycine alone (defined as 100%).

GluN1/GluN2B receptors [2] = target: GluN1/GluN2B receptors (Rattus norvegicus, UniProt P35439+Q00960); assay: IC50 of GluN1/GluN2B receptors expressed in Xenopus oocytes (two electrode voltage-clamp), rat; assay type: cell-based; details: pH 7.4, 50 μM glutamate, 30 μM glycine
Experimental: as §1, §2
Percent Response=(100−minimum)/(1+([conc]/IC50)^nH)+minimum
where minimum is the residual percent response in saturating concentration of the experimental compounds, IC50 is the concentration of antagonist that causes half of the achievable inhibition, and nH is a slope factor describing steepness of the inhibition curve. Minimum was constrained to be greater than or equal to 0.
Recordings were made at pH 6.9, pH 7.4, and pH 7.6. The pH Boost ratio calculated by dividing the IC50 measured at pH 7.6 by the IC50 measured at pH 6.9.

GluN1/GluN2B receptors [3] = target: GluN1/GluN2B receptors (Homo sapiens, UniProt Q05586+Q13224); assay: IC50 of GluN1/GluN2B receptors expressed in Xenopus oocytes (two electrode voltage-clamp), human; assay type: cell-based; details: for Human pH Boost Ratio (IC50 pH 7.6/IC50 pH 6.9): IC50 at pH 7.6 divided by IC50 at pH 6.9; for IC50: 30 μM glycine
α1-Adrenergic = α1-Adrenergic binding, displacement of [3H]-prazosin from brain membranes; details: 3 μM test compound, 0.25 nM [3H]-prazosin, Wistar rat brain membranes, duplicate
Experimental: (§4) Binding to the human ether-a-go-go potassium channel (hERG) expressed in HEK293 cells by displacement of 1.5 nM [3H]-astemizole. Each result represents the average of displacement binding experiments done in duplicate at 10 uM of the test compound. Percent displacement of 0.25 nM [3H]-prazosin from Wistar rat brain membranes. Each result represents the average of displacement binding experiments done in duplicate at 3 μM of the test compound.

[4] = target: T1, human ether-a-go-go potassium channel (hERG) expressed in HEK293 cells (Homo sapiens, UniProt Q12809); assay: hERG binding, displacement of [3H]-astemizole; details: 10 μM test compound, 1.5 nM [3H]-astemizole, duplicate
T1 construct: expressed in transfected cells; host or cells: HEK293 cells
Experimental: as §4

[5] = target: GluN1/GluN2A subtype of NMDA receptors (Rattus norvegicus, UniProt Q00959); assay: NMDA receptor subunit selectivity, GluN1/GluN2A in Xenopus oocytes; assay type: cell-based; details: 2 min; 10 μM antagonist with 50 μM glutamate and 30 μM glycine, two min; agonists alone = 100%; read-out: GluN2A % Current Remaining
Experimental: as §1, §2, §3

[6] = pH 6.9, 50 μM glutamate, read-out: Human pH 6.9 IC50
[7] = pH 7.4, 50 μM glutamate, read-out: Human pH 7.4 IC50

GluN1/GluN2B receptors (Rattus norvegicus, UniProt P35439+Q00960), sequence (Q00960 27-1482, other chains not shown): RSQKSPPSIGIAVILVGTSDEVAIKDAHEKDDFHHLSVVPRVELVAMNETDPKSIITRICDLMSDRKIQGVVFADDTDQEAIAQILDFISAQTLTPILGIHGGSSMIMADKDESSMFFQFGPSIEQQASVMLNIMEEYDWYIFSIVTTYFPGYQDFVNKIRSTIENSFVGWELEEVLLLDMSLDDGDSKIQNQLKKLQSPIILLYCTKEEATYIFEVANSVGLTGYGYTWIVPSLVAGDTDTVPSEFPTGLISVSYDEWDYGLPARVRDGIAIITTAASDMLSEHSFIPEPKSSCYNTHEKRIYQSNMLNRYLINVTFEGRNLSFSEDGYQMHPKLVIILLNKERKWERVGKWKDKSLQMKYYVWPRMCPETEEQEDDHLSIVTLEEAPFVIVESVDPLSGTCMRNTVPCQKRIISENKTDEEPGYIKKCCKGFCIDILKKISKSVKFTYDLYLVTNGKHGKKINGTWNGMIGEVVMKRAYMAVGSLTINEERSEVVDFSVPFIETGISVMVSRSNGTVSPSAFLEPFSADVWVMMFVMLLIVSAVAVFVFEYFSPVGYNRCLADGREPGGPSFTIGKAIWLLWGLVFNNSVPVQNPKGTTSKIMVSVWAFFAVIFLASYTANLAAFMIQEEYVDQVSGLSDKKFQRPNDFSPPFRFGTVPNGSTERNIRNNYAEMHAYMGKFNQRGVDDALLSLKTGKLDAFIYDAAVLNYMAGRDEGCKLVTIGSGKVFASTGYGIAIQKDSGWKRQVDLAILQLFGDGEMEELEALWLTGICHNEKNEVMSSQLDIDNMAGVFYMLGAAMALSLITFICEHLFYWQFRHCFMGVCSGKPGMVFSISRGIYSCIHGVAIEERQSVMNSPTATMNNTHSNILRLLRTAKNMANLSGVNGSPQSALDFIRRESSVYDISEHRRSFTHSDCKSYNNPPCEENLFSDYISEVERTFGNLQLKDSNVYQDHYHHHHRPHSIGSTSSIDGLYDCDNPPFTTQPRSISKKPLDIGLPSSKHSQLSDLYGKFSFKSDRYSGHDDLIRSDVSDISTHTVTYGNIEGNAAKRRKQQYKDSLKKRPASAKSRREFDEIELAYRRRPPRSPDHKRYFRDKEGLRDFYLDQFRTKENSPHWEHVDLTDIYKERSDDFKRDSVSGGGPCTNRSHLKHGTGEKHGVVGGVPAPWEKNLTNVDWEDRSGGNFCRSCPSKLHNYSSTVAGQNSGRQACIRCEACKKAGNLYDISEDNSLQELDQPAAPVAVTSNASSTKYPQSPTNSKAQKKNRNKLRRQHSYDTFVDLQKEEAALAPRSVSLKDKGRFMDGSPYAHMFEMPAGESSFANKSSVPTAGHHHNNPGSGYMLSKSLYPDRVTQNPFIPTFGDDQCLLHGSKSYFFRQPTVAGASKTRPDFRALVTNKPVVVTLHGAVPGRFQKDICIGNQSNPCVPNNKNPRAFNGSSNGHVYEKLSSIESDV
GluN1/GluN2D subtype of NMDA receptors, sequence (Q62645 28-1323, other chains not shown): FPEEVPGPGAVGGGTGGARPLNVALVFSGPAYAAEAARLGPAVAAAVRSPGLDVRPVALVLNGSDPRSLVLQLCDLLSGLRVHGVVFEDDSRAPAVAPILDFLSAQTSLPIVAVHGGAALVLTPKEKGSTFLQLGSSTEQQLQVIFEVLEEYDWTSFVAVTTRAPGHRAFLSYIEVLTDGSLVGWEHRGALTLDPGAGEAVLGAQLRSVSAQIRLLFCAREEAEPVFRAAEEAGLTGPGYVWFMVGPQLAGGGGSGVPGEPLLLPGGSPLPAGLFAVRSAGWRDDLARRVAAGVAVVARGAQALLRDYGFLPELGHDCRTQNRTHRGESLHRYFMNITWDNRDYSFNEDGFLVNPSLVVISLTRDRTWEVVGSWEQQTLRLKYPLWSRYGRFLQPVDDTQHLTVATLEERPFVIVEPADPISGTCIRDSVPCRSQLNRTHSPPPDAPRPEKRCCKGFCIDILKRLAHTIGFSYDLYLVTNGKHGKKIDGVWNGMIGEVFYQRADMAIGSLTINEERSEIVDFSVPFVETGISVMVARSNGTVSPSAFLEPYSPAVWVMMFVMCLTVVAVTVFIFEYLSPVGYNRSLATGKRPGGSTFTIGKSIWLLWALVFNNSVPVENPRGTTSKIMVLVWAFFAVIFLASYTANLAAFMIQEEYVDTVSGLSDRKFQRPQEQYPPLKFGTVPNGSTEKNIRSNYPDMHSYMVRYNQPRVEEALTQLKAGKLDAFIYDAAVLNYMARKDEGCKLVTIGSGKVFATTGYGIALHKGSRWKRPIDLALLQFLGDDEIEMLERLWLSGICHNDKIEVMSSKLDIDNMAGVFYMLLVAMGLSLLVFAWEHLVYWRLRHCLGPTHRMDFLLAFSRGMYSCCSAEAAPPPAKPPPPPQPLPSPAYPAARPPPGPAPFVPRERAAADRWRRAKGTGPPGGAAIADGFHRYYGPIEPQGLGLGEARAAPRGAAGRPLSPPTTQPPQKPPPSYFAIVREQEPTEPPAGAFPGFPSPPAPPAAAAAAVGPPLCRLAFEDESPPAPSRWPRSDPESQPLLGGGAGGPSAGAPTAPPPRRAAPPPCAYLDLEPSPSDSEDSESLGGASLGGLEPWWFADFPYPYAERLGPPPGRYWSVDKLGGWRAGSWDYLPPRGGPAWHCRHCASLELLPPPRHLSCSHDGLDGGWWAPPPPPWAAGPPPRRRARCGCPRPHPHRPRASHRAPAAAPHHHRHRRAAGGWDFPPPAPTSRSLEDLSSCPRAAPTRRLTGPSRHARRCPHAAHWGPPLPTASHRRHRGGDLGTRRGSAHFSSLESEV
T1 sequence (Q12809 whole entry): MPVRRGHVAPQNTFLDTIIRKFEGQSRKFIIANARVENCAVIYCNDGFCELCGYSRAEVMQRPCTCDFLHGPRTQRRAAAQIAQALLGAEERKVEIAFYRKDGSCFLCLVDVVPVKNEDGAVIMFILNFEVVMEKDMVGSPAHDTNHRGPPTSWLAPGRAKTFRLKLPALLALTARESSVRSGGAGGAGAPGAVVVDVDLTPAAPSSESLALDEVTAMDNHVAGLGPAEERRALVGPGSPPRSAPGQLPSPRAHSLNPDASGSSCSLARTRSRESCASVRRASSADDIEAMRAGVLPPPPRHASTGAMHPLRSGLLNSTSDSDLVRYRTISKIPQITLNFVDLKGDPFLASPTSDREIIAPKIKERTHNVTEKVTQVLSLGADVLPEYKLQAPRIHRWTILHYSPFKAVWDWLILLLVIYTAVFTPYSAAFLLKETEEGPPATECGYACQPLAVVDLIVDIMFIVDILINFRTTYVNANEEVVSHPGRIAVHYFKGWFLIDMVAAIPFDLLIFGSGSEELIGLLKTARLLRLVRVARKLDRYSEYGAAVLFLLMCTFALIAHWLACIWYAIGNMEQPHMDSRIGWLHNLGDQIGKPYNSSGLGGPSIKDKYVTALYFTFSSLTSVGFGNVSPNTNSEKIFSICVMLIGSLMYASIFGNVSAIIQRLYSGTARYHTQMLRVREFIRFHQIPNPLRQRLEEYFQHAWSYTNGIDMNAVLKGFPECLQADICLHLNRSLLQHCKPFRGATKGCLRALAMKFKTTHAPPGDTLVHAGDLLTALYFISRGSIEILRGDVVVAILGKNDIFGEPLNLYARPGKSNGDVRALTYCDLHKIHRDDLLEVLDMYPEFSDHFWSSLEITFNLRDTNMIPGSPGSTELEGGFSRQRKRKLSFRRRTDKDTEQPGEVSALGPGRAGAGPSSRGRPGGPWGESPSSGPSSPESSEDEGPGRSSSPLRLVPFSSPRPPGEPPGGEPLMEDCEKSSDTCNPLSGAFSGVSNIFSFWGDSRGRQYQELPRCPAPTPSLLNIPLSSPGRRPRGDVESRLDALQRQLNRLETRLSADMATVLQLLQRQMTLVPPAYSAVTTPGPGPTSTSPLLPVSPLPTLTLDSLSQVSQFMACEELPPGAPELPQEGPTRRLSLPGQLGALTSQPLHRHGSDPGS

In the case of `O=C1CCc2cc(OCC3CCN(C(=O)Nc4ccc(Cl)cc4)CC3)ccc2N1` [Compound 13, N-(4-chlorophenyl)-4-(((2-oxo-1,2,3,4-tetrahydroquinolin-6-yl)oxy)methyl)piperidine-1-carboxamide], the remaining activity at 10 µM [1] is reported as 106%, the IC50 (GluN1/GluN2B receptors [2]) is reported as 339 nM and the “Human pH Boost Ratio (IC50 pH 7.6/IC50 pH 6.9)” value (“Human pH Boost Ratio” below) (GluN1/GluN2B receptors [3]) is reported as 2.0. For the same molecule, the IC50 (GluN1/GluN2B receptors [3]; [6]) was 283 nM, the IC50 (GluN1/GluN2B receptors [3]; [7]) was 468 nM and the “α1-Adrenergic binding % Displacement @ 3 μM” value (α1-Adrenergic) was 16%. The “hERG Binding % Displacement @ 10 μM” value [4] was 37% and the remaining activity at 10 µM [5] was 105%.
For `O=C1CCc2cc(OCC3CCN(C(=O)Nc4ccc(C(F)(F)F)cc4)CC3)ccc2N1` [Compound 17, 4-(((2-oxo-1,2,3,4-tetrahydroquinolin-6-yl)oxy)methyl)-N-(4-(trifluoromethyl)phenyl)piperidine-1-carboxamide], the remaining activity at 10 µM [1] was 93.9%, the IC50 (GluN1/GluN2B receptors [2]) was 359 nM and the “Human pH Boost Ratio” value (GluN1/GluN2B receptors [3]) was 2.0. For the same molecule, the IC50 (GluN1/GluN2B receptors [3]; [6]) was 237 nM, the IC50 (GluN1/GluN2B receptors [3]; [7]) was 517 nM and the “α1-Adrenergic binding % Displacement @ 3 μM” value (α1-Adrenergic) was 7%. The “hERG Binding % Displacement @ 10 μM” value [4] was 75% and the remaining activity at 10 µM [5] was 98.7%.
For `O=C1CCc2cc(OCC3CCN(C(=O)OCc4ccc(Cl)cc4)CC3)ccc2N1` [Compound 11, 4-chlorobenzyl 4-(((2-oxo-1,2,3,4-tetrahydroquinolin-6-yl)oxy)methyl)piperidine-1-carboxylate], the remaining activity at 10 µM [1] was 104%, the IC50 (GluN1/GluN2B receptors [2]) was 837 nM and the “Human pH Boost Ratio” value (GluN1/GluN2B receptors [3]) was 1.4. For the same molecule, the IC50 (GluN1/GluN2B receptors [3]; [6]) was 589 nM, the IC50 (GluN1/GluN2B receptors [3]; [7]) was 868 nM and the “α1-Adrenergic binding % Displacement @ 3 μM” value (α1-Adrenergic) was 16%. The “hERG Binding % Displacement @ 10 μM” value [4] was 56% and the remaining activity at 10 µM [5] was 111%.
`O=C(Nc1ccc(Cl)cc1)N1CCC(COc2ccc(O)cc2)CC1` [Compound 33] was tested, and the remaining activity at 10 µM [1] was 104%, the “Human pH Boost Ratio” value (GluN1/GluN2B receptors [3]) was 1.8 and the IC50 (GluN1/GluN2B receptors [3]; [6]) was 740 nM. It also gave a remaining activity at 10 µM [5] of 111%.
`O=C1CCc2cc(OCC3CN(C(=O)NCc4ccc(Cl)cc4)C3)ccc2N1` [Compound 28, N-(4-chlorobenzyl)-3-(((2-oxo-1,2,3,4-tetrahydroquinolin-6-yl)oxy)methyl)azetidine-1-carboxamide] was tested, and the remaining activity at 10 µM [1] was 94.5%, the IC50 (GluN1/GluN2B receptors [2]) was 4900 nM and the “Human pH Boost Ratio” value (GluN1/GluN2B receptors [3]) was 3.5. The IC50 (GluN1/GluN2B receptors [3]; [6]) was 2300 nM, the IC50 (GluN1/GluN2B receptors [3]; [7]) was 3500 nM and the “α1-Adrenergic binding % Displacement @ 3 μM” value (α1-Adrenergic) was 12%. For the same molecule, the “hERG Binding % Displacement @ 10 μM” value [4] was 27% and the remaining activity at 10 µM [5] was 102%.
In the case of `O=C1CCc2cc(OCC3CCN(C(=O)Cc4ccc(Cl)cc4)CC3)ccc2N1` [Compound 15, 6-((1-(2-(4-chlorophenyl)acetyl)piperidin-4-yl)methoxy)-3,4-dihydroquinolin-2(1H)-one], the remaining activity at 10 µM [1] is reported as 101%, the IC50 (GluN1/GluN2B receptors [2]) is reported as 3200 nM and the “Human pH Boost Ratio” value (GluN1/GluN2B receptors [3]) is reported as 8.6. For the same molecule, the IC50 (GluN1/GluN2B receptors [3]; [6]) was 490 nM, the IC50 (GluN1/GluN2B receptors [3]; [7]) was 2000 nM and the “α1-Adrenergic binding % Displacement @ 3 μM” value (α1-Adrenergic) was 13%. For the same molecule, the “hERG Binding % Displacement @ 10 μM” value [4] was 18% and the remaining activity at 10 µM [5] was 96.3%.
